Paper PMC9693223 (Molecules, 2022)
Read-outs that look alike come from different tables or passages of the source.

How the values were obtained:
TcrNT2 = TcrNT2 (Trypanosoma cruzi, UniProt Q4DHG0); test: Transport of [^3H]-thymidine by TcrNT2 expressed in L. mexicana Cas9^ΔNT1 (Km, inhibition); assay type: cell-based; settings: for δ(ΔG°) with respect to ΔG° of thymidine: change in ΔG° relative to thymidine; for δ(ΔG°), pairwise comparison with uridine: pairwise comparison vs. uridine; for δ(ΔG°), pairwise comparison with 2′-deoxyuridine: pairwise comparison vs. 2′-deoxyuridine
Sequence of TcrNT2 (Q4DHG0 entry or part of it): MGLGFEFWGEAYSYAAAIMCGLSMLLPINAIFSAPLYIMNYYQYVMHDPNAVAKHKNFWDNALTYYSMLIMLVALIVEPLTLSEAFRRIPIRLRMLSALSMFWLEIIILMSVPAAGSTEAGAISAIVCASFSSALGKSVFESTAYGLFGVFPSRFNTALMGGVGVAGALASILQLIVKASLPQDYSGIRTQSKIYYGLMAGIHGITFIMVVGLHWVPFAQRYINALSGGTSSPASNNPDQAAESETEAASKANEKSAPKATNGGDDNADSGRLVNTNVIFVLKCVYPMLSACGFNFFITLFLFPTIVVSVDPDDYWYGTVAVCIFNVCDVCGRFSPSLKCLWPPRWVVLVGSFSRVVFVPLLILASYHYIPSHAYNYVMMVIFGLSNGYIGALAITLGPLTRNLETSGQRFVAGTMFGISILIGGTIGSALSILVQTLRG
Procedure: These values can be used to calculate the Gibbs free energy of interaction ΔG°, but these experiments cannot distinguish between the test compound being transported or merely binding to the transporter and inhibiting the transit of the [^3H]-thymidine.
Transport assays were conducted with radiolabeled nucleosides [methyl-^3H]-thymidine (20 Ci/mmol; PerkinElmer (Waltham, MA, USA)) and [2,8-^3H]-adenosine (40 Ci/mmol; American Radiolabeled Chemicals (ARC, St-Louis, MO, USA)). Cells were harvested from mid-log phase cultures by centrifugation and washed into an assay buffer (AB) as described, at a density of 1 × 10^8 cells mL^−1. Transport assays were then performed exactly as described previously, using an oil-stop protocol. Briefly, 100 µL of cell suspension (10^7 cells) was mixed with 100 µL of [^3H]-substrate at 2 × final concentration and incubated for a pre-set time prior to the addition of 800 µL of ice-cold AB containing a saturating concentration of unlabeled permeant (usually 1 or 2.5 mM) and immediate centrifugation through an oil layer to separate cells from extracellular radiolabel. The 100 µL of [^3H]-substrate could also contain unlabeled substrate or an inhibitor at 2 × concentration, as appropriate. Next, the microfuge tubes were flash frozen in liquid nitrogen; the tips with the cell pellets cut off and collected in scintillation tubes. Cells were solubilized by incubation in 2% SDS under gentle shaking on a rocking platform prior to the addition of scintillation fluid (Scintilogic U, Lablogic, Sheffield, UK). The tubes stored in the dark overnight before counting in a 300SL Hidex Scintillation Counter (Lablogic).
Michaelis-Menten constants (Km) were calculated by plotting transport rates of [^3H]-substrate against the concentration, using the Michaelis-Menten equation V0 = Vmax([substrate]/([substrate] + Km)) and non-linear regression in GraphPad Prism 8. Inhibition constants (Ki) were calculated using the Cheng-Prusoff equation: Ki = IC50/(1 + (L/Km)), where L represents the radiolabel concentration. The IC50 was obtained by a non-linear regression of the inhibition curve of transport rate versus inhibitor concentration, using an equation for a sigmoid curve with variable slope (GraphPad Prism 8). The Gibbs free energy ΔG° was obtained using the equation ΔG° = −RTln(Ki), in which R is the gas constant and T is the absolute temperature. As discussed previously, these equations apply to competitive rather than non-competitive inhibition. Given that only close analogues of the substrate were used as potential inhibitors and that Hill slopes were consistently close to −1, it is very likely that inhibition was indeed competitive.

[1] = test system: L. mexicana Cas9^ΔNT1+TcrNT2 promastigotes; test: Alamar blue drug sensitivity assay, L. mexicana Cas9^ΔNT1+TcrNT2 promastigotes; assay type: cell-based, Leishmania mexicana; settings: Cas9^ΔNT1+TcrNT2 in comparison to L. mexicana Cas9^ΔNT1
Excerpt: (§1) We used L. mexicana promastigotes of the Cas9 strain developed by Beneke at al. to generate the ΔNT1 strain, and from there the Cas9^ΔNT1+TcrNT2 (see below); The original Cas9 strain was generously donated by Prof. Eva Gluenz (University of Bern, Switzerland). All strains in standard HOMEM (GIBCO, Life Technologies, Paisley, UK) supplemented with 10% heat-inactivated fetal bovine serum (FBS; PAA Laboratories, Linz, Austria) and 1% of a penicillin–streptomycin solution (10,000 U mL^−1 each; Life Technologies) at 25 °C, as described.
(§2) The Alamar blue assay (resazurin sodium salt) was used to determine the drug sensitivity of the L. mexicana promastigotes in vitro. The assay is based on the reduction of resazurin sodium salt (blue and non-fluorescent) to resorufin (pink color and fluorescent) by live cells. HOMEM medium with 10% FBS (100 μL) was added to all wells of a white 96-well plate apart from the first well. 200 μL of a known concentration of test compounds was diluted in HOMEM medium and placed in the first well. Compounds were tested in one plate and every compound was diluted over two rows (23 concentrations), leaving the last well of every dilution as a negative control having 100 μL HOMEM medium. Next, 100 μL of L. mexicana culture at a density of 2 × 10^6 cells mL^−1 was added into every well in the plate and incubated for 72 h at a temperature of 25 °C after which resazurin sodium salt (Sigma) (20 μL of a solution of 12.5 mg in 100 mL PBS) was added and the plate was incubated under the same conditions for a further 48 h. Fluorescence was measured in a FLUOstar OPTIMA plate reader (BMG Labtech, Germany), at a wavelength of 544 nm for excitation and 620 nm for emission. The EC50 values and fluorescence data were determined and plotted by the GraphPad Prism 8 Software using an equation for a sigmoid curve with variable slope. Pentamidine was used as positive control and every experiment was performed 3–4 times independently.

[2] = test system: L. mexicana Cas9 promastigotes; test: Alamar blue drug sensitivity assay, L. mexicana Cas9 promastigotes; assay type: cell-based, Leishmania mexicana; settings: Leishmania mexicana, 120 h, 72 h + 48 h resazurin, at least 3 independent determinations, read-out: EC50 (µM) AVG ± SEM, Cas9
Excerpt: as §1, §2

[3] = test system: L. mexicana Cas9^ΔNT1 promastigotes; test: Alamar blue drug sensitivity assay, L. mexicana Cas9^ΔNT1 promastigotes; assay type: cell-based, Leishmania mexicana; settings: EC50 Cas9^ΔNT1 relative to L. mexicana Cas9
Excerpt: as §1, §2

[4] = calculated from Km or Ki at 25 °C
[5] = read-out: Ki on the transport of [^3H]-thymidine by TcrNT2
[6] = TcrNT2 in L. mexicana Cas9^ΔNT1, […] [^3H]-thymidine, IC50 converted to Ki (Cheng-Prusoff), read-out: Ki on the transport of [^3H]-thymidine by TcrNT2

Row | SMILES | RF vs. ΔNT1 (resistance factor) [1] | EC50 [2] | RF vs. Cas9 (resistance factor) [3] | further results
1 | Cc1cn([C@H]2C[C@H](O)[C@@H](C)O2)c(=O)[nH]c1=O [5′-deoxythymidine] | – | – | – | ΔG° (Gibbs free energy of interaction) (TcrNT2; [4]): -7.72 kcal/mol; δ(ΔG°) with respect to ΔG° of thymidine (TcrNT2): -1.26 kcal/mol; Ki (TcrNT2; [5]): 2.2 ± 0.03 µM
2 | C#Cc1cn([C@@H]2O[C@H](CO)[C@@H](O)[C@H]2O)c2ncnc(N)c12 [FH3143] | 3.11 | 0.12 ± 0.021 µM | 7.74 | –
3 | Nc1ncnc2c1c(I)cn2[C@@H]1O[C@H](CO)[C@@H](F)[C@H]1O [JB526, 7-I,3′-F-tubercidin] | 11.6 | ~100 µM | ~0.84 | –
4 | Nc1ncnc2c1c(Br)nn2[C@@H]1O[C@H](CO)[C@@H](O)[C@H]1O [JBMAM021] | 0.97 | 3.8 ± 0.66 µM | 79.9 | –
5 | C[C@H]1O[C@@H](n2ccc(=O)[nH]c2=O)[C@H](O)[C@@H]1O [5′-deoxyuridine] | – | – | – | δ(ΔG°), pairwise comparison with uridine (TcrNT2): -1.05 kcal/mol; Ki (TcrNT2; [5]): 1020 ± 57 µM
6 | C#Cc1cn([C@@H]2O[C@H](CO)C[C@H]2O)c2ncnc(N)c12 [FH8505] | 1.47 | 47.2 ± 1.47 µM | 1.13 | –
7 | Nc1ncnc2c1c(-c1ccc(Cl)cc1)nn2[C@@H]1O[C@H](CO)[C@@H](O)[C@H]1O [JB602] | – | > 500 µM | – | –
8 | O=c1[nH]c(=O)n([C@@H]2O[C@H](CO)[C@@H](O)[C@H]2O)cc1Br [5-Br-uridine] | – | – | – | Ki (TcrNT2; [6]): 30.1 ± 1.8 µM; ΔG° (Gibbs free energy of interaction) (TcrNT2; [4]): -6.17 kcal/mol; δ(ΔG°) with respect to ΔG° of thymidine (TcrNT2): -2.82 kcal/mol; δ(ΔG°), pairwise comparison with uridine (TcrNT2): -1.03 kcal/mol
9 | Cc1cn([C@H]2C[C@H](O)[C@@H](CO)O2)c(=O)[nH]c1=S [4-thiothymidine] | – | – | – | ΔG° (Gibbs free energy of interaction) (TcrNT2; [4]): -7.58 kcal/mol; Ki (TcrNT2; [5]): 2.79 ± 0.11 µM
10 | O=c1[nH]c(=O)n([C@H]2C[C@H](O)[C@@H](CO)O2)cc1I [5-I-2′-deoxyuridine] | – | – | – | Ki (TcrNT2; [6]): 0.19 ± 0.04 µM; ΔG° (Gibbs free energy of interaction) (TcrNT2; [4]): -9.15 kcal/mol; δ(ΔG°), pairwise comparison with 2′-deoxyuridine (TcrNT2): 1.14 kcal/mol; δ(ΔG°), pairwise comparison with 2′-deoxyuridine (TcrNT2; listed as 5-I-2′-dUrd): -1.15 kcal/mol
11 | Cc1cn([C@@H]2O[C@H](CO)[C@@H](O)[C@H]2O)c(=O)[nH]c1=O [5-Me-uridine, 5-methyluridine] | – | – | – | ΔG° (Gibbs free energy of interaction) (TcrNT2; [4]): -6.21 kcal/mol; δ(ΔG°) with respect to ΔG° of thymidine (TcrNT2): -2.77 kcal/mol; δ(ΔG°) with respect to ΔG° of thymidine (TcrNT2; listed as 5-Me-Urd): 2.77 kcal/mol; δ(ΔG°) with respect to ΔG° of thymidine (TcrNT2; listed as 5-methyluridine): 2.765 kcal/mol; δ(ΔG°), pairwise comparison with uridine (TcrNT2): -1.08 kcal/mol; Ki (TcrNT2; [5]): 28 ± 0.4 µM
12 | Nc1ncnc2c1c(C(F)(F)F)cn2[C@@H]1O[C@H](CO)[C@@H](O)[C@H]1O [FH6367, 7-(trifluoromethyl)-tubercidin] | 1.91 | 1.42 ± 0.177 µM | 1.44 | –
13 | N=C(N)c1ccc(OCCCCCOc2ccc(C(=N)N)cc2)cc1 [Pentamidine] | 1.11 | 0.87 ± 0.104 µM | 1.43 | –
14 | Cc1cn([C@H]2CC[C@@H](CO)O2)c(=O)[nH]c1=O [3′-deoxythymidine] | – | – | – | ΔG° (Gibbs free energy of interaction) (TcrNT2; [4]): -4.76 kcal/mol; δ(ΔG°) with respect to ΔG° of thymidine (TcrNT2): -4.21 kcal/mol; Ki (TcrNT2; [5]): 322 ± 22.6 µM
15 | Nc1ncnc2c1c(I)cn2[C@@H]1O[C@H](CO)[C@@H](O)[C@H]1O [FH3141] | 7.83 | 1.08 ± 0.202 µM | 13.4 | –
16 | Cc1ncnc2c1c(-c1ccc(Cl)cc1)cn2[C@@H]1O[C@H](CO)[C@@H](O)[C@H]1O [CL4501] | 2.2 | ~100 µM | 0.84 | –
17 | Nc1ncnc2c1c(F)cn2[C@@H]1O[C@H](CO)[C@@H](F)[C@H]1O [JB588, 7-F,3′-F-tubercidin] | 2.15 | 0.51 ± 0.093 µM | 17.3 | –
18 | Nc1ncnc2c1c(-c1ccc(Cl)c(Cl)c1)cn2[C@@H]1O[C@H](CO)C[C@H]1O [FH8513, 7-(3,4-dichlorophenyl)-3′-deoxytubercidin] | 3 | ~100 µM | 0.94 | –
19 | Nc1ncnc2c1c(F)cn2[C@@H]1O[C@H](CO)C[C@H]1O [FH8517, 7-F-3′-deoxytubercidin] | 1.28 | 3.18 ± 0.78 µM | 3.93 | –
20 | Nc1ncnc2c1c(F)cn2[C@@H]1O[C@H](CO)[C@@H](O)[C@H]1O [FH3167, 7-F-tubercidin] | 41.9 | 0.22 ± 0.09 µM | 40.7 | –
21 | Cc1cn([C@H]2C[C@H](O)[C@@H](CO)O2)c(=S)[nH]c1=O [2-thiothymidine] | – | – | – | Ki (TcrNT2): 3.38 ± 0.26 µM; ΔG° (Gibbs free energy of interaction) (TcrNT2): -7.46 kcal/mol
22 | Nc1ncnc2c1cnn2[C@@H]1O[C@H](CO)[C@@H](O)[C@H]1O [JBMAM030, aminopurinol riboside] | 0.94 | 7.81 ± 0.9 µM | 39.8 | –
23 | Nc1ncnc2c1c(Br)cn2[C@@H]1O[C@H](CO)C[C@H]1O [FH7429-UP] | 2.27 | 8 ± 0.8 µM | 1.17 | –
24 | CNc1ncnc2c1ccn2[C@@H]1O[C@H](CO)[C@@H](O)[C@H]1O [CL5564] | >5.6 | > 100 µM | – | –
25 | Nc1ncnc2c1c(-c1ccccc1)cn2[C@@H]1O[C@H](CO)C[C@H]1O [FH8480] | – | > 500 µM | – | –
